In patent US8568987B2, “Chemotaxis diagnostic” (Glycotope Biotechnology GmbH, priority 2000, dated 2013):

Tests used:
[1] = system: neutrophilic granulocytes (LECAM-1 surface expression); experiment: Granulocyte chemotaxis test from leukocyte-rich plasma: LECAM-1 surface expression by flow-through cytometry; format: cell-based, human; details: 5×10^−8 M fMLP vs negative control containing PBS; FIG. 3A/3B
Method: (§1) 1 ml of Ficoll (Ficoll separation medium, from Seromed, order No. L6113 (endotoxin-low)) is initially introduced in an Eppendorf tube and 1 ml of fresh (preferably not older than 8 hours) heparinized whole blood (endotoxin-low heparin) is carefully overlaid at room temperature. The mixture is allowed to stand at room temperature until a marked phase separation can be observed. After a spontaneous sedimentation, normally lasting for about 40 minutes at room temperature, the leukocytes and platelets remain above the Ficoll phase while the erythrocytes have sedimented to the bottom. The sinking of the erythrocytes occurs quite suddenly after from approx. 30 to 40 minutes. […]
(§2) 20 μl of LDS (laser dye LDS 751, from Exiton or Styryl 8, from Lambda Physik, Göttingen; for excluding the erythrocytes, 1 mg/ml, prediluted 1:50 in PBS) are added to the solution. […] The measurement is stopped after in each case 1000 or 2000 latex particles have been recorded, such that approx. 5000-15 000 neutrophils have been counted. […] The sheath fluid employed is FACS Flow (from Becton Dickinson, order No. 342003) or another carrier fluid having a low intrinsic fluorescence. […] The calibration and quality control for fluorescence measurements (intensity per cell) are carried out using the Calibrites. […]

[2] = system: neutrophilic granulocytes; experiment: Granulocyte chemotaxis test: number of cells migrated through porous membrane, counted against beads by flow-through cytometry; format: cell-based, human; details: 5×10^−8 M fMLP vs negative control containing PBS; FIG. 3B
Method: as §1, §2

N-formyl-Met-Leu-Phe [fMLP]
decrease in the surface expression of the cell adhesion molecule LECAM-1 [1]: about one order of magnitude
number of neutrophilic granulocyte cells which have migrated through the membrane, in relation to constant number of beads [2]: marked increase
